From patent publication US8026231B2, “Aminothiolester compounds, pharmaceutical and cosmetic compositions containing same and uses thereof” (CNRS, priority 2000, dated 2011)
Blank lines part the entries; values can stand above or below the molecule they belong to.

Columns and labels:
[1] = test system: DU145 cells; assay: Growth of DU145 cells (protein and DNA assay, 72 h); assay type: cell-based, human
Experimental: (§1) The cells used correspond to two cell lines: metastatic cells of human prostate cancer (DU145) and murine lymphoid cells transfected with the human bcl2 gene (BAF3 bcl2).
The procedure used for the tests on DU145 is as follows: • 10^5 cells are incubated in the various wells of a microplate in 1 ml of culture medium.
(§2) The compounds are added 4 hours after placing the cells in the wells.
After 72 hours, the cells are removed at different times. The DU145 cells are washed twice with PBS and recovered directly with 0.1M sodium chloride.
(§3) The effect on the growth of the DU145 cells is measured by protein assay according to the Lowry method (Lowry, O. H., Rosenbrough, N. J., Farr, A. L. and Randall, J. Biol. Chem. 193, 265-275, (1951)) and DNA assay by the Hoechst method (West, D. C., Sattar, A. and Kumar, S., Anal. Biochem. 147, 289-295, (1985)).
(§4) The IC50 concentration is the concentration corresponding to a 50% inhibition of cell growth.

[2] = test system: BAF3 bcl2 cells; assay: Growth of BAF3 bcl2 cells (viable cell count, Trypan blue); assay type: cell-based, murine; conditions: 50% inhibition of cell growth
Experimental: as §1
The procedure used for the tests on BAF3 bcl2 cells is as follows: • 10^5 cells are incubated in the various wells of a microplate in 1 ml of culture medium. After incubation for 4 hours, the test compounds are added to the wells containing the BAF3 bcl2 cells.
For the BAF3 bcl2 cells, the growth is measured by counting the viable cells in the presence of 0.1% Trypan blue. The control consists of thioampal, disclosed in patent application WO 98/44919.
as §4

[3] = test system: DU145 cells; assay: Combination of two compounds of the invention on the growth of DU145 cells; assay type: cell-based, human; conditions: Homo sapiens, DU-145
Experimental: (§5) 10^5 normal human prostate cells or 10^5 cancerous human prostate cells (DU145) are incubated in various wells of a microplate in 1 ml of culture medium.
as §2
(§6) After 72 hours, the cells are removed at different times. The DU145 cells or the normal cells are washed twice with PBS and recovered directly with 0.1M sodium chloride.
as §3, with “DU145 cells or the normal” for “DU145”

[4] = test system: normal human prostate cells; assay: Combination of two compounds of the invention on normal human prostate cells; assay type: cell-based; conditions: Homo sapiens, Prostate cell
Experimental: as §5, §2, §6
as §3, with “DU145 cells or the normal” for “DU145”

[5] = test system: DU145 cells; assay: Combination of Example 1 and Metmetlico on the growth of DU145 cells; assay type: cell-based, human
Experimental: The cells used correspond to metastatic cells of human prostate cancer DU145. 10^5 DU145 cells are incubated in the various wells of a microplate in 1 ml of culture medium. The test compounds are added 4 hours after placing the cells in the wells. After 72 hours, the cells are removed at different times. The cells are washed twice with PBS and recovered directly with 0.1M sodium chloride. The effect on the growth of DU145 cells is measured by protein assay according to the Lowry method (Lowry, O. H., Rosenbrough, […]. and Randall, J. Biol. Chem. 193, 265-275, (1951)) and DNA assay by the Hoechst method (West, […]. and Kumar, S., Anal. Biochem. 147, 289-295, (1985)). The test compounds are the compound of Example 1, metmetlico and a mixture thereof.

[6] = test system: R7 cells; assay: Growth of R7 cells which overexpress the MDR gene; assay type: cell-based; conditions: increasing concentrations, 72 h, FIGS. 7 and 8
Experimental: (§7) 10^5 cells were incubated in the various wells of a microplate in 1 ml of culture medium. These are R7 cells, on the one hand, and K562 cells, on the other hand.
(§8) After incubating for 4 hours, the test compound (compound of Example 1 according to the invention, on the one hand, and daunorubicin, on the other hand) was added to the wells containing the cells.
(§9) After 72 hours, the cells were collected at different times.
(§10) The growth of the cells was measured by counting the viable cells in the presence of 0.1% Trypan blue.
(§11) FIGS. 7 and 8 respectively represent the percentage inhibition (I %) by daunorubicin and the compound of Example 1 on the growth of the R7 and K562 cells, obtained at increasing concentrations C. The results obtained with the K562 cells are symbolized by ♦ and those obtained with the R7 cells are symbolized by ▴.

[7] = test system: K562 cells; assay: Growth of K562 cells (control, no MDR overexpression); assay type: cell-based, human; conditions: increasing concentrations, 72 h, FIGS. 7 and 8
Experimental: as §7, §8, §9, §10, §11

[8] = Homo sapiens, DU-145, 50% inhibition of cell growth

IC50 [1, 8]: 8 µM
IC50 ([2]; Mus musculus): 2.7 µM
SMILES: CCCN(CCC)C(C)(C)C#CC(=O)SC [Example 3, S-methyl 4-di-n-propylamino-4-methyl-2-pentynethioate]

IC50 ([1]; 50% inhibition of cell growth): 7.2 µM
IC50 [2]: 2.7 µM
SMILES: CSC(=O)C#CC(C)(C)N1CCCC1 [Example 4, S-methyl 4-methyl-4-pyrrodin-1-yl-2-pentynethioate]

The next lines start with the molecule.

SMILES: CSC(=O)C#CC(C)(C)N1CCOCC1 [Example 5, S-methyl 4-methyl-4-morpholin-4-yl-2-pentynethioate]
IC50 [1, 8]: 8.8 µM
IC50 ([2]; Mus musculus): 12 µM
inhibition at 1 µM ([3]; 1 μM): 14.3%
inhibition at 2 µM ([3]; 2 μM): 25.2%
inhibition at 1 µM ([4]; 1 μM): 0%
inhibition at 2 µM ([4]; 2 μM): 1.3%

SMILES: CSCCC(=O)SCCC(CCCCC(=O)OCC[N+](C)(C)C)SC(=O)CCSC.[I-] (stereo not drawn) [Metmetlico, 2′-(trimethylammonium)ethyl 6S,8S-bis(3-methyl-thiopropanoyl)octanoate iodide, reference compound]
% Inhibition of growth of the DU145 cells ([5]; 25 μM): 0%
% Inhibition of growth of the DU145 cells ([5]; 50 μM): 0%

SMILES: COc1cccc2c1C(=O)c1c(O)c3c(c(O)c1C2=O)C[C@@](O)(C(C)=O)C[C@@H]3O[C@H]1C[C@H](N)[C@H](O)[C@H](C)O1 [daunorubicin, reference compound]
Inhibition of the growth of the R7 cells [6]: no inhibitory effect on the growth of the R7 cells
Inhibition of the growth of the K562 cells [7]: inhibits the growth of the K562 cells
